Experimental data reported in patent US11512090B2, “Muscarinic acetylcholine M1 receptor antagonists” (PIPELINE THERAPEUTICS, INC., priority 2018, dated 2022).
Read-outs that look alike come from different tables or passages of the source.

Key:
Format in all cases: cell-based
human M1 receptor = target: T1, human M1 receptor (Homo sapiens, UniProt P11229); assay: In vitro functional assay of muscarinic acetylcholine receptor activity (aequorin calcium flux, antagonist mode vs EC80 acetylcholine), M1
T1 sequence (P11229 1-460): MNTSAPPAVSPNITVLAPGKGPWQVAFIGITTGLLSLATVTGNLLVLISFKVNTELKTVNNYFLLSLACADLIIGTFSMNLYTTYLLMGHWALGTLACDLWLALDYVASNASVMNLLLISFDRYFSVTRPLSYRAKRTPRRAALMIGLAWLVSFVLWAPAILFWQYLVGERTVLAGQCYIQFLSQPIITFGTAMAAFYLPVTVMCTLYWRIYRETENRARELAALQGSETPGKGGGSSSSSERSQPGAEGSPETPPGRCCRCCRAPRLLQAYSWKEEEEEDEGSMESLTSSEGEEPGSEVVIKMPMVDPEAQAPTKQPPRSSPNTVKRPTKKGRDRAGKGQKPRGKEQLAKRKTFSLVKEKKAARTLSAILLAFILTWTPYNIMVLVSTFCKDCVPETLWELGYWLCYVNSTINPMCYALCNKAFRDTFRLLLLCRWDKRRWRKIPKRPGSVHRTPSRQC
Procedure: (§1) CHO-K1 cells stably expressing human M1 receptor with Aequorin (Perkin Elmer) were grown in F12 media, 10% FBS with 0.4 mg/mL geneticin and […]. Cells were grown to confluence and frozen down to be assayed at a later date. On the day of the experiment cells were thawed in a 37° C. water bath, resuspended in DMEM/HAM's F12 with HEPES (Invitrogen)+0.1% protease-free BSA (assay buffer), and spun down to remove freezing media. After centrifugation, supernatant was removed and 12 mL of assay buffer was added. Coelenterazine h (Promega) was added to the cells at a final concentration of 5 uM and incubated for 4 hours at room temperature in the dark. Compound master plate-96 deep well (Corning) were formatted in a 8-point DRC in assay buffer with 0.2% DMSO at a starting concentration of 60 uM (2×). After 4 hours of incubation, cells were plated at a concentration of 5×10^5 cells/well in 96 well white-walled, tissue culture-treated, clear-bottom plates (VWR). Compounds were added to the daughter plate, and cells plus compound were incubated at room temperature for 30 minutes in the dark.
(§2) Calcium flux was measured using the FlexStation 3 (Molecular Devices). To measure the antagonist dose-response, the EC80 of Acetylcholine was injected to the daughter plate using the automated compound transfer function of the Flex Station, and the increase in luminescence was measured over time. Antagonist activity was analyzed as a concentration dependent decrease in the EC80 acetylcholine response. Dose response curves were generated using Prism (GraphPad Software). The IC50 of the compounds was calculated from the dose response curve.

M2 = target: T2, M2 (Homo sapiens, UniProt P08172); assay: In vitro functional assay of muscarinic acetylcholine receptor activity, M2; settings: antagonist IC50 at M2; read-out: M2 IC50
T2 sequence (P08172 1-466): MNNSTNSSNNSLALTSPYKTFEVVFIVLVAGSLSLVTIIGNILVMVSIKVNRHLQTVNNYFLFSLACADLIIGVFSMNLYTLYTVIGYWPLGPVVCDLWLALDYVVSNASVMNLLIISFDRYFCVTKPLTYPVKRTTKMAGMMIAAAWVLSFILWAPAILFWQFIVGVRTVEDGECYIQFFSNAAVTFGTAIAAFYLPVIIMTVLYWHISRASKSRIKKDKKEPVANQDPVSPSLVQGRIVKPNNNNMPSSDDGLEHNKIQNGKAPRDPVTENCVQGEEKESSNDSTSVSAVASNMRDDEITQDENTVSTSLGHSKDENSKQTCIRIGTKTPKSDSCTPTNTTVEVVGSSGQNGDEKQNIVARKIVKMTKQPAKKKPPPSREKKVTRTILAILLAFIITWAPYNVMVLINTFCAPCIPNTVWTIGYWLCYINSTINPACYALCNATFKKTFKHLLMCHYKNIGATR
Procedure: [The procedure below names another target; the source lists this target under the same test.] as §1, §2

M3 = M3 (Homo sapiens, UniProt P20309); assay: In vitro functional assay of muscarinic acetylcholine receptor activity, M3; settings: antagonist IC50 at M3; read-out: M3 IC50
Procedure: [The procedure below names another target; the source lists this target under the same test.] as §1, §2

[1] = CHO-K1 cells stably expressing human M1 receptor with Aequorin, decrease in EC80 acetylcholine response, read-out: M1 IC50

Sequence of M3 (P20309 whole entry): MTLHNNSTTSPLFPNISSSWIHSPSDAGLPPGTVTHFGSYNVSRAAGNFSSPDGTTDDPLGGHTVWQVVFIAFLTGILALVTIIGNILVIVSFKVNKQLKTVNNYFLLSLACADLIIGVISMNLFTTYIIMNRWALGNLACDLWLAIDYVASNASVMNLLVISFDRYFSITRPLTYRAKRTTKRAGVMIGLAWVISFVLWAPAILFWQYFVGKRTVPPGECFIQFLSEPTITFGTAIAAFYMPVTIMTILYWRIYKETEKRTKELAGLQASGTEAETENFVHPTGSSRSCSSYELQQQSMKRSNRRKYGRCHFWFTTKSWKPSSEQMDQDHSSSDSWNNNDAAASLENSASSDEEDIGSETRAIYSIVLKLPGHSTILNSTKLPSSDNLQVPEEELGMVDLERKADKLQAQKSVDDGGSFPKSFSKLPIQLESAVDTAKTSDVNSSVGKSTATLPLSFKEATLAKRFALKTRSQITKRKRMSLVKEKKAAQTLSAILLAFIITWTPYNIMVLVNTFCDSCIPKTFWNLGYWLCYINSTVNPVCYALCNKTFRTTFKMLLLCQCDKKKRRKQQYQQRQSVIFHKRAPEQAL

| IC50 (M3) [µM] | Compound | IC50 (human M1 receptor; [1]) [µM] | IC50 (M2) [µM] | IC50 (human M1 receptor) [µM] |
| --- | --- | --- | --- | --- |
| > 10 | Cc1cc(F)cnc1N1C[C@H]2C[C@@H]1CN2C(=O)CCCc1cccc2ncccc12 (racemic) [Example 53, rac-1-((1R,4R)-5-(5-fluoro-3-methylpyridin-2-yl)-2,5-diazabicyclo[2.2.1]heptan-2-yl)-4-(quinolin-5-yl)butan-1-one] | 1 to 10 | 1 to 10 | – |
| > 10 | O=C(CCCc1cccc2ncccc12)N1C[C@H]2C[C@@H]1CN2c1ccc(F)cn1 (racemic) [Example 54, rac-1-((1R,4R)-5-(5-fluoropyridin-2-yl)-2,5-diazabicyclo[2.2.1]heptan-2-yl)-4-(quinolin-5-yl)butan-1-one] | 0.1 to 1 | 1 to 10 | – |
| – | N#Cc1ccc(N2C3CCC2CN(C(=O)CCNCc2c(F)ccc4ncnn24)C3)nc1 [Example 41, 6-(3-{3-[({6-fluoro-[1,2,4]triazolo[1,5-a]pyridin-5-yl}methyl)amino]propanoyl}-3,8-diazabicyclo[3.2.1]octan-8-yl)pyridine-3-carbonitrile] | – | – | < 0.1 |
| > 10 | O=C(CCNCc1cccc2ncsc12)N1CCN(c2ccc(C(F)(F)F)cn2)CC1 [Example 119, 3-{[(1,3-benzothiazol-7-yl)methyl)amino}-1-{4-[5-(trifluoromethyl)pyridin-2-yl]piperazin-1-yl}propan-1-one] | 1 to 10 | – | – |
| – | Cc1ccc(N2C3CCC2CN(C(=O)CCOCc2cccn4ncnc24)C3)nn1 [Example 189, 1-[8-(6-methylpyridazin-3-yl)-3,8-diazabicyclo[3.2.1]octan-3-yl]-3-({[1,2,4]triazolo[1,5-a]pyridin-8-yl}methoxy)propan-1-one] | – | – | 0.1 to 1 |
| – | O=Cc1ccc(N2C3CCC2CN(C(=O)CCOCc2cccn4ncnc24)C3)nc1 [Example 190, 6-{3-[3-({[1,2,4]triazolo[1,5-a]pyridin-8-yl}methoxy)propanoyl]-3,8-diazabicyclo[3.2.1]octan-8-yl}pyridine-3-carbaldehyde] | – | – | < 0.1 |
| – | N#Cc1ccc(N2C3CCC2CN(C(=O)CCN(Cc2cccc4ncnn24)C2CCC2)C3)nc1 [Example 191, 6-(3-{3-[cyclobutyl({[1,2,4]triazolo[1,5-a]pyridin-5-yl}methyl)amino]propanoyl}-3,8-diazabicyclo[3.2.1]octan-8-yl)pyridine-3-carbonitrile] | 1 to 10 | – | – |
| – | O=C([C@H]1C[C@H](Nc2cccc3ncccc23)C1)N1CC2CCC(C1)N2c1ccncc1 [Example 196, N-[(1r,3r)-3-[8-(pyridin-4-yl)-3,8-diazabicyclo[3.2.1]octane-3-carbonyl]cyclobutyl]quinolin-5-amine] | 1 to 10 | – | – |
| – | N#Cc1ccc(N2C3CCC2CN(C(=O)CCCc2cccn4ncnc24)C3)nc1 [Example 198, 6-[3-(4-{[1,2,4]triazolo[1,5-a]pyridin-8-yl}butanoyl)-3,8-diazabicyclo[3.2.1]octan-8-yl]pyridine-3-carbonitrile] | – | – | < 0.1 |
| – | N#Cc1ccc(N2C3CCC2CN(C(=O)CCCc2cccc4ncnn24)C3)nc1 [Example 199, 6-[3-(4-{[1,2,4]triazolo[1,5-a]pyridin-5-yl}butanoyl)-3,8-diazabicyclo[3.2.1]octan-8-yl]pyridine-3-carbonitrile] | – | – | < 0.1 |

| Compound | IC50 (M3) [µM] | IC50 (human M1 receptor; [1]) [µM] | IC50 (M2) [µM] | IC50 (human M1 receptor) [µM] |
| --- | --- | --- | --- | --- |
| O=C(COCc1cccc2ncccc12)N1C[C@H]2CC[C@@H](C1)N2c1ccc(F)cn1 [Example 1, 1-((1R,5S)-8-(5-fluoropyridin-2-yl)-3,8-diazabicyclo[3.2.1]octan-3-yl)-2-(quinolin-5-ylmethoxy)ethan-1-one] | > 10 | – | 1 to 10 | < 0.1 |
| O=C(CC1CN(c2cccc3ncccc23)C1)N1C[C@H]2CC[C@@H](C1)N2c1ccc(F)cn1 [Example 2, 1-((1R,5S)-8-(5-fluoropyridin-2-yl)-3,8-diazabicyclo[3.2.1]octan-3-yl)-2-(1-(quinolin-5-yl)azetidin-3-yl)ethan-1-one] | > 10 | 1 to 10 | 1 to 10 | – |
